In patent US8871735B2, “Methods and compositions for providing cardiac protection” (University of Medicine and Dentistry of New Jersey, priority 2008, dated 2014):

Assays:
H9C2 cells = assay: cAMP accumulation in H9C2 cells; assay type: cell-based; conditions: 5 μM ISO, 3 minutes, 10 μM drug
Text: […] Fludarabine ((+)-2-Fluoro-9-(5-O-phosphono-β-D-arabinofuranosyl)-9H-purin-6-amine) and Cladribine (2-chloro-2′-deoxyadenosine) are anti-cancer drugs, Adefovir (Bis(2,2-dimethylpropanoyloxymethyl)[2-(6-amino-9H-purin-9-yl)ethoxymethyl]phosphonate) and Zidovudine are anti-HIV drugs. Zidovudine-TP is a metabolite of zidovudine which inhibits virus replication. TP; triphosphate. 3-Deazaadenosine, Formycin A (7-Amino-3-(β-D-ribofuranosyl)-1H-pyrazolo[4,3-d]pyrimidine), 2-Far (2-Fluoroadenosine), formycin A ((2S,3R,4S,5R)-2-(7-amino-2H-pyrazolo[5,4-e]pyramidin-3-yl-5-(hydroxymeth-yl)oxolane-3,4-diol), 2-FD (2-Fluoro-2′-deoxyadenosine) and 2′5′ ddAdo (2′5′-dideoxyadenosine) are experimental drugs.
(§1) Mice were anesthetized with 2.5% tribromoethanol (0.010 to 0.015 mL per gram of body weight) injected intraperitoneally, and echocardiography was performed with ultrasonography (ACUSON Sequoia C256, Siemens Medical Solutions, Malvern, Pa.). For acute injection of isoproterenol, forskolin and milrinon, a PE-10 catheter was inserted into the right jugular vein, and drugs were injected at the rate of 1 μl/s. cAMP accumulation assay in H9C2 cells, a cardiac myoblast cell line, was examined as previously described.

[1] = tested on: C57Bl/6 mice, chronic ISO infusion; assay: Chronic ISO infusion heart failure model; assay type: in vivo, mouse
Text: ISO with or without AC5 inhibitors were chronically infused with osmotic mini-pump implanted subcutaneously at indicated doses for 1 week in c57Bl/6 mice. Mice were then subjected to echocardiography (a) and the hearts were removed and subjected to pathological examinations such as myocardial apoptosis (b) and fibrosis (c). n=4-8.
In C57Bl/6 mice, ISO with or without AC5 inhibitors or metoprolol were chronically infused with an osmotic mini-pump at the indicated doses for 1 week. Mice were then subjected to echocardiography (a) and heart tissue were subjected to a myocardial apoptosis assay (b). *, p<0.01 vs vehicle. #, p<0.05 vs vehicle. .dagger., p<0.01 vs ISO. .dagger-dbl., p<0.05 vs ISO. n=4-15. […] Comparisons between multiple groups were made using ANOVA with post-hoc tests.
Tenofovir diphosphate (PMPA-PP), zidovudine monophosphate (MP), zidovudine diphosphate (PP), zidovudine triphosphate (TP), famciclovir penciclovir and valaciclovir were purchased from Moravek. Formycin A (FMA) and Formycin B (FMB) were purchased from Berry and Associates. All other reagents were from Sigma unless specified. Long-term infusion of isoproterenol (Sigma, St. Louis, Mo.) was performed for 7 days at a dose of 60 mg/kg/d with or without AC5 inhibitors by using a miniosmotic pump (ALZET model 2001, DURECT Corp, Cupertino, Calif.). Control mice received vehicle in pumps. Pumps were removed 24 hours before biochemical and physiological studies. Experiments were performed in 3- to 5-month-old male C57Bl/6, and in AC5Tg transgenic mice. This study was approved by the Animal Care and Use Committee at New Jersey Medical School.
as §1

**Q.** With `Nc1ncnc2c1ncn2[C@@H]1O[C@H](CO)[C@@H](O)[C@@H]1O` [Ara-Ade, 9-β-D-arabinofuranosyladenine] as the compound, how does the “inhibition of cAMP accumulation in H9C2 cells” value (H9C2 cells) read?
**A.** slight inhibition

**Q.** And the “ISO-induced decrease in LVEF (and FS)” value ([1]; ISO 60 mg/kg/d 7 days, Ara-Ade 20 and 100 mg/kg/day, 2′5′ ddAdo 20 mg/kg/day)?
**A.** rescued LVEF and FS reduction

**Q.** And the ISO-induced cardiac fibrosis ([1]; chronic ISO infusion)?
**A.** significantly inhibited

**Q.** What about the “ISO-induced myocardial apoptosis in vivo” value ([1]; chronic ISO infusion) of the same compound?
**A.** significantly inhibited

**Q.** What about the “ISO-induced wall thickening (DESP, DPW)” value ([1]; chronic ISO infusion) of the same compound?
**A.** neither Ara-Ade nor 2′5′ ddAdo inhibited

**Q.** And the “LVW/BW and myocyte cross sectional area” value ([1]; chronic ISO infusion)?
**A.** increased

**Q.** What about the “survival rate during 1-week chronic ISO” value ([1]; vs vehicle) of the same compound?
**A.** higher
